Consider 6 compounds from ChEMBL document CHEMBL3868587, “Heptaketides from an Endolichenic Fungus Biatriospora sp. and Their Antifungal Activity” (2016).

≈ marks a conversion by molar mass, not a printed value. Calls of active or inactive are those of the source. No cut-off for these calls is given here.

The subject of assay [1] is Candida albicans. Kind of assay: Antifungal activity against Candida albicans SC5314 by CLSI broth microdilution method. Format: functional.
The nature of assay [2]: Antifungal activity against fluconazole-resistant Candida albicans clinical isolate 24D by CLSI broth microdilution method. The class given is functional.
Assay [3] is described as follows: Antifungal activity against fluconazole-resistant Candida albicans clinical isolate 18I by CLSI broth microdilution method. The class given is functional.
The nature of assay [4]: Antifungal activity against fluconazole-resistant Candida albicans clinical isolate 142 by CLSI broth microdilution method. The class given is functional. (In general: Dilution methods test growth across graded concentrations, often in twofold steps.)
Assay [5] can be described thus: Antifungal activity against fluconazole-resistant Candida albicans clinical isolate 144 by CLSI broth microdilution method. Format: functional.
The nature of assay [6]: Antifungal activity against fluconazole-resistant Candida albicans clinical isolate 145 by CLSI broth microdilution method. The class given is functional.
A short description of assay [7]: Antifungal activity against fluconazole-resistant Candida albicans clinical isolate 147 by CLSI broth microdilution method. Format: functional.
For assay [8], the system named is Candida albicans. Kind of assay: Inhibition of CDR1/CDR2 in Candida albicans clinical isolate 24D assessed as potentiation of fluconazole-induced antifungal activity up to 8 ug/ml after 24 hrs by broth microdilution checkerboard assay.
Assay [9] relates to Candida albicans. The experiment in a line: Inhibition of CDR1/CDR2 in Candida albicans clinical isolate 18I assessed as potentiation of fluconazole-induced antifungal activity up to 8 ug/ml after 24 hrs by broth microdilution checkerboard assay.
For assay [10], the system named is Candida albicans. The experiment in a line: Inhibition of CDR1/CDR2 in Candida albicans clinical isolate 142 assessed as potentiation of fluconazole-induced antifungal activity up to 8 ug/ml after 24 hrs by broth microdilution checkerboard assay.
Assay [11] deals with Candida albicans. Kind of assay: Inhibition of CDR1/CDR2 in Candida albicans clinical isolate 144 assessed as potentiation of fluconazole-induced antifungal activity up to 8 ug/ml after 24 hrs by broth microdilution checkerboard assay.
For assay [12], the system named is Candida albicans. The experiment in a line: Inhibition of CDR1/CDR2 in Candida albicans clinical isolate 145 assessed as potentiation of fluconazole-induced antifungal activity up to 8 ug/ml after 24 hrs by broth microdilution checkerboard assay.
Assay [13] concerns Candida albicans. The experiment in a line: Inhibition of CDR1/CDR2 in Candida albicans clinical isolate 147 assessed as potentiation of fluconazole-induced antifungal activity up to 8 ug/ml after 24 hrs by broth microdilution checkerboard assay.
For assay [14], the system named is Candida albicans. The experiment in a line: Inhibition of CDR1/CDR2 in Candida albicans clinical isolate 142 assessed as potentiation of fluconazole-induced antifungal activity measured as reduction in fluconazole MIC80 up to 8 ug/ml after 24 hrs by XTT based broth microdilution assay relative to fluconazole. For orientation: Tetrazolium assays rely on reduction of a dye to a coloured formazan, in cell work by metabolically active cells.

In assay [15] the test system is Candida albicans. Kind of assay: Inhibition of Candida albicans clinical isolate 24D CDR1/CDR2 assessed as inhibtion of glucose-induced rhodamine-123 efflux at 1 ug/ml measured after 30 mins by flow cytometry. (In general: A flow cytometer gives signals particle by particle.)
Assay [16] has as its system Candida albicans. Kind of assay: Inhibition of Candida albicans clinical isolate 24D CDR1/CDR2 assessed as inhibtion of glucose-induced rhodamine-123 efflux at 1 ug/ml measured after 30 mins by confocal microscopic analysis.
Assay [17] is described as follows: Reduction in CDR1 mRNA expression in fluconazole-resistant Candida albicans clinical isolate 24D at 1 ug/ml measured after 12 hrs by qPCR method relative to control. The class given is functional.
Assay [18] can be described thus: Reduction in CDR2 mRNA expression in fluconazole-resistant Candida albicans clinical isolate 24D at 1 ug/ml measured after 12 hrs by qPCR method relative to control. The class given is functional.
Assay [19] in a line: Upregulation of CDR1 mRNA expression in fluconazole-resistant Candida albicans clinical isolate 24D at 2 ug/ml measured after 12 hrs by qPCR method relative to control. The class given is functional.
Assay [20] is described as follows: Upregulation of CDR2 mRNA expression in fluconazole-resistant Candida albicans clinical isolate 24D at 2 ug/ml measured after 12 hrs by qPCR method relative to control. The class given is functional.
Assay [21] can be described thus: Antifungal activity against Candida albicans clinical isolate 24D after 24 hrs in presence of fluconazole by XTT based broth microdilution assay. Format: functional.
Assay [22] in a line: Antifungal activity against Candida albicans clinical isolate 18I after 24 hrs in presence of fluconazole by XTT based broth microdilution assay. Format: functional.
In assay [23] the test system is Candida albicans. The experiment in a line: Antifungal activity against Candida albicans clinical isolate 142 after 24 hrs in presence of fluconazole by XTT based broth microdilution assay. The class given is functional. As to conditions: isolate 142, 24 h.
The subject of assay [24] is Candida albicans. Kind of assay: Antifungal activity against Candida albicans clinical isolate 144 after 24 hrs in presence of fluconazole by XTT based broth microdilution assay. Format: functional. The settings on record: isolate 144, 24 h.
Assay [25] relates to Candida albicans. The experiment in a line: Antifungal activity against Candida albicans clinical isolate 145 after 24 hrs in presence of fluconazole by XTT based broth microdilution assay. Format: functional. As to conditions: isolate 145, 24 h.
Assay [26] in a line: Antifungal activity against Candida albicans clinical isolate 147 after 24 hrs in presence of fluconazole by XTT based broth microdilution assay. Format: functional.
Assay [27] deals with Candida albicans. Kind of assay: Inhibition of CDR1/CDR2 in Candida albicans clinical isolate 24D assessed as potentiation of fluconazole-induced antifungal activity by measuring fluconazole MIC80 up to 8 ug/ml after 24 hrs by XTT based broth microdilution assay (reference value: >128 ug/ml).
In assay [28] the test system is Candida albicans. Kind of assay: Inhibition of CDR1/CDR2 in Candida albicans clinical isolate 18I assessed as potentiation of fluconazole-induced antifungal activity by measuring fluconazole MIC80 up to 8 ug/ml after 24 hrs by XTT based broth microdilution assay (reference value: >128 ug/ml).
In assay [29] the test system is Candida albicans. The experiment in a line: Inhibition of CDR1/CDR2 in Candida albicans clinical isolate 142 assessed as potentiation of fluconazole-induced antifungal activity by measuring fluconazole MIC80 up to 8 ug/ml after 24 hrs by XTT based broth microdilution assay (reference value: >128 ug/ml).
The test system of assay [30] is Candida albicans. The experiment in a line: Inhibition of CDR1/CDR2 in Candida albicans clinical isolate 144 assessed as potentiation of fluconazole-induced antifungal activity by measuring fluconazole MIC80 up to 8 ug/ml after 24 hrs by XTT based broth microdilution assay (reference value: >128 ug/ml).
Assay [31] relates to Candida albicans. Kind of assay: Inhibition of CDR1/CDR2 in Candida albicans clinical isolate 145 assessed as potentiation of fluconazole-induced antifungal activity by measuring fluconazole MIC80 up to 8 ug/ml after 24 hrs by XTT based broth microdilution assay (reference value: >128 ug/ml).
The test system of assay [32] is Candida albicans. The experiment in a line: Inhibition of CDR1/CDR2 in Candida albicans clinical isolate 147 assessed as potentiation of fluconazole-induced antifungal activity by measuring fluconazole MIC80 up to 8 ug/ml after 24 hrs by XTT based broth microdilution assay (reference value: >128 ug/ml).

For `COc1cc(O)c2c(c1)-c1oc(C)cc1C(=O)C2=O`, the MIC80 (in the assay on Candida albicans [1]; in assay [2]; in assay [3]; in [4]; in assay [5]; in assay [6]) was 16 µg/mL (≈ 62 µM) each time. In addition, the MIC80 in [7] turned out to be 16 µg/mL (≈ 62 µM); in [21], 0.25 µg/mL; in assay [22] it was 0.25 µg/mL; in the assay with Candida albicans [23] it was 0.125 µg/mL; in the assay with Candida albicans [24], 0.125 µg/mL; with Candida albicans [25], 0.125 µg/mL. Besides, in assay [26], the MIC80 was 0.125 µg/mL. Further, the fractional inhibitory concentration index (FICI) stood at 0.03 in the assay with Candida albicans [8]; 0.02 in the assay on Candida albicans [9]; 0.01 with Candida albicans [10]; 0.02 with Candida albicans [11]; 0.04 in the assay on Candida albicans [12]; 0.02 in the assay with Candida albicans [13]. The fold change (FC) with Candida albicans [14] was greater than 256; in [17], 0.4; in assay [18] it was 0.5; in assay [19], 2; in assay [20] it was 3.6. For the same compound, the inhibition result with Candida albicans [15] and in the assay on Candida albicans [16] was “Active” each time.

On to `CC1=CC2=C(CO1)C(=O)c1c(O)cc(O)cc1C2=O`, for which the MIC80 in the assay on Candida albicans [1] stood at 32 µg/mL (≈ 124 µM).

Consider `CN(C/C=C/C#CC(C)(C)C)Cc1cccc2ccccc12` [TERBINAFINE], for which, in the assay with Candida albicans [1], the MIC80 was determined as 16 µg/mL (≈ 54.9 µM).

Take `OC(Cn1cncn1)(Cn1cncn1)c1ccc(F)cc1F` [FLUCONAZOLE]: the MIC80 with Candida albicans [1] is 2 µg/mL (≈ 6.53 µM); in assay [2] it was greater than 128 µg/mL; in [3] it was greater than 128 µg/mL; in assay [4] it was greater than 128 µg/mL; in [5], greater than 128 µg/mL; in assay [6] it was greater than 128 µg/mL. Besides, the MIC80 is greater than 128 µg/mL in assay [7]; 2 µg/mL in the assay with Candida albicans [27]; 1 µg/mL in the assay on Candida albicans [28]; 0.5 µg/mL in the assay with Candida albicans [29]; 2 µg/mL with Candida albicans [30]; 4 µg/mL in the assay on Candida albicans [31]. In the assay on Candida albicans [32], the MIC80 was 2 µg/mL.

The compound `COc1cc(O)c2c(c1)C(=O)C1=C(C2=O)[C@H](OC)O[C@@H](C)C1` registered an MIC80 in the assay on Candida albicans [1] of 64 µg/mL (≈ 210 µM).

In turn, `COc1cc(O)c2c(c1)C(=O)C(CC(C)=O)=C(C)C2=O` came in with an MIC80 in the assay with Candida albicans [1] of 64 µg/mL (≈ 233 µM).
